Target: T1, cannabinoid receptor 2 (CB2R) (Homo sapiens, UniProt P34972)
T1 construct: gene CNR2
Assay: radioligand binding assay, [3H]CP […] displacement

T1 sequence (P34972 whole entry): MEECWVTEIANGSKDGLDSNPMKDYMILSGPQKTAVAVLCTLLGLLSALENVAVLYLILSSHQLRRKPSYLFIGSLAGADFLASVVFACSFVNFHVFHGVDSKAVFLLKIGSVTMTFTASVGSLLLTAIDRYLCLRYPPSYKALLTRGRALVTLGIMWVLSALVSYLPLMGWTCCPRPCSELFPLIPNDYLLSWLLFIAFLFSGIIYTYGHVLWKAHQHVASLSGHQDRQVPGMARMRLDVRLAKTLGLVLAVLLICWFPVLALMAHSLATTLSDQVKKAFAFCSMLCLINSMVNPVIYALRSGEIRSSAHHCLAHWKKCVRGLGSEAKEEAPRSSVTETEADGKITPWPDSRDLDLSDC

With `CCOC(=O)C1=CC(c2cccc(C)c2)C2CCC(CC(=O)c3ccccc3)OC2N1S(=O)(=O)c1ccc(C)cc1` (stereo not shown) [YX-2102] the Ki was 350 nM.

Source: paper PMC9724349, “Discovery of a pyrano[2,3-b]pyridine derivative YX-2102 as a cannabinoid receptor 2 agonist for alleviating lung fibrosis” (Journal of Translational Medicine, 2022)
